In brackets after ≈: the same amount, converted by molar mass. Like-named read-outs stand apart in the source and are kept apart here.
Tests used:
Assay type in all cases: cell-based
Filamentous fungi = assay: MIC by modified NCCLS M27-A microdilution, Filamentous fungi; details: 11 strains, geometric mean, MIC = lowest concentration giving 50% inhibition of growth
Protocol: (§1) Minimal Inhibitory Concentrations (MICs) were determined by using a modification of the microdilution method M27-A recommended by the National Committee for Clinical Laboratory Standards in RPMI-1640 medium (Sigma) supplemented with glucose to a concentration of 2% and adjusted to pH 7.0 with 0.165 M morpholine propanesulfonic (MOPS) acid buffer. Serial twofold dilutions were made in modified RPMI-1640 medium from stock solutions. MICs were defined as the lowest drug concentrations resulting in 50% inhibition of growth compared to that of the growth control. […] The number of strains used in the experiments is given in parenthesis below the name of each microorganism.

Candida spp = assay: MIC by modified NCCLS M27-A microdilution, Candida spp; details: 42 strains, geometric mean, MIC = lowest concentration giving 50% inhibition of growth
Protocol: as §1

Dermatophytes = assay: MIC by modified NCCLS M27-A microdilution, Dermatophytes; details: 17 strains, geometric mean, MIC = lowest concentration giving 50% inhibition of growth
Protocol: as §1

Malassezia spp = assay: MIC by modified NCCLS M27-A microdilution, Malassezia spp; details: 11 strains, geometric mean, MIC = lowest concentration giving 50% inhibition of growth
Protocol: as §1

fungi and yeasts = assay: Microbiological activity (MIC) overall, comparison of enantiomers and racemate
Protocol: as §1

[1] = RPMI-1640 2% glucose pH 7.0, read-out: MIC

SMILES	MIC (Filamentous fungi; [1]) [µg/mL]	MIC (Candida spp; [1]) [µg/mL]	MIC (Dermatophytes; [1]) [µg/mL]	MIC (Malassezia spp; [1]) [µg/mL]	MIC (Filamentous fungi; RPMI-1640 2% glucose pH 7.0) [µg/mL]	MIC (Candida spp; RPMI-1640 2% glucose pH 7.0) [µg/mL]	MIC (Dermatophytes; RPMI-1640 2% glucose pH 7.0) [µg/mL]	MIC (Malassezia spp; RPMI-1640 2% glucose pH 7.0) [µg/mL]	microbiological activity in comparison with R-(−)sertaconazole (fungi and yeasts; in words, from Table 1)	activity compared with the racemic mixture (fungi and yeasts; against both fungi and yeasts, as shown in Table 1)
Clc1ccc(C(Cn2ccnc2)OCc2csc3c(Cl)cccc23)c(Cl)c1 (racemic) [Racemate, 1-[2-(7-chlorobenzo[b]thiophen-3-yl-methoxy)-2-(2,4-dichlorophenyl)-ethyl]-1H-imidazole]	3.11 (≈ 7.1 µM)	0.256 (≈ 0.585 µM)	0.08 (≈ 0.183 µM)	1.37 (≈ 3.13 µM)	–	–	–	–	–	–
Clc1ccc([C@@H](Cn2ccnc2)OCc2csc3c(Cl)cccc23)c(Cl)c1.O=[N+]([O-])O (single isomer, unassigned) [S-(+)enantiomer]	–	–	–	–	16	3.217	0.17	10.96	much less active	–
Clc1ccc([C@H](Cn2ccnc2)OCc2csc3c(Cl)cccc23)c(Cl)c1.O=[N+]([O-])O [R-(−)enantiomer, (R)-(−)-1-[2-(7-chlorobenzo[b]thiophen-3-yl-methoxy)-2-(2,4-dichlorophenyl)-ethyl]-1H-imidazole mononitrate]	1.76	0.125	0.04	0.64	–	–	–	–	–	about 2 times
